Assay results: patent publication US7851445B2, “Angiogenic heparin-binding epitopes, peptide amphiphiles, self-assembled compositions and related methods of use” (Northwestern University, priority 2005, dated 2010)
Where a SMILES comes first, the peptide text is derived from it. The star is where a group is joined. Palmitoyl = CCCCCCCCCCCCCCCC(=O)*

Key:
[1] = Isothermal titration calorimetry of heparin into HBPA solution; details: ITC, heparin titrated into HBPA in water, fit for a single type of binding site
Excerpt: Isothermal titration calorimetry was used to titrate increments of heparin independently into both the HBPAs and measured the heat released upon binding as a function of the molar ratio. The data obtained was integrated and fitted to a nonlinear function as previously described (Fromm, J. R., et al, “Differences in the Interaction of Heparin with Arginine and Lysine and the Importance of These Basic-Amino-Acids in the Binding of Heparin to Acidic Fibroblast Growth-Factor” Arch. Biochem. Biophys. 323 (1997) 279) to obtain an association constant of 10^7 in both cases (see FIGS. 3E and 3F). Despite similarity in their binding constants, the binding interaction of HBPA-1 and HBPA-2 were energetically very different. […] Such results can be explained with reference to their respective structures. HBPA-1 has hydrophobic residues on the periphery of its peptide chain and the increase in entropy is possibly due to displacement of solvent water molecules from these residues upon heparin interaction.
Characterization of the self-assembly. […] The images were analyzed using the Leica LCS imaging software. […] A frequency sweep experiment was performed at 3% strain with a ten-minute wait time (both determined by independently performing an amplitude sweep and a time strain experiment) to obtain 17 data points between angular frequencies of 0.1 to 10 rad/s. […]

Solubility in water = assay type: physicochemical

| Structure (SMILES) | association constant [1] | solubility in water (Solubility in water) |
| --- | --- | --- |
| CCCCCCCCCCCCCCCC(=O)N[C@@H](C)C(=O)N[C@@H](C)C(=O)N[C@@H](C)C(=O)N[C@@H](C)C(=O)NCC(=O)NCC(=O)NCC(=O)N[C@@H](CC(C)C)C(=O)N[C@@H](CCCNC(=N)N)C(=O)N[C@@H](CCCCN)C(=O)N[C@@H](CCCCN)C(=O)N[C@@H](CC(C)C)C(=O)NCC(=O)N[C@@H](CCCCN)C(=O)N[C@@H](C)C(N)=O [HBPA-1] (Palmitoyl-AAAAGGGLRKKLGKA-NH2) | 10^7 | readily soluble in water |
| CCCCCCCCCCCCCCCC(=O)N[C@@H](C)C(=O)N[C@@H](C)C(=O)N[C@@H](C)C(=O)N[C@@H](C)C(=O)NCC(=O)NCC(=O)NCC(=O)N[C@@H](CC(C)C)C(=O)N[C@@H](CC(C)C)C(=O)NCC(=O)N[C@@H](C)C(=O)N[C@@H](CCCNC(=N)N)C(=O)N[C@@H](CCCCN)C(=O)N[C@@H](CCCCN)C(=O)N[C@@H](CCCCN)C(N)=O [HBPA-2] (Palmitoyl-AAAAGGGLLGARKKK-NH2) | 10^7 | readily soluble in water |
